Assay results: patent publication US20260234464A1, “POLYALKYL PHOSPHONATED POLYOL ETHER BASED SCALE INHIBITORS” (ChampionX LLC, priority 2023, published 2026)

Assay: static efficiency test of sulfate scale inhibition
Details: 90° C., one hour after mixing anion and cation brine 1:1 (v/v), Ba2+ in solution; for inhibition efficiency, Brine A: SI dosage 1 ppm; for inhibition efficiency, Brine B: SI dosage 7.5 ppm; for inhibition efficiency, Brine C: SI dosage 5 ppm; for inhibition efficiency, Brine D: SI dosage 30 ppm
Description: Anion brine and cation brines A, B, C, and D were prepared according to Table 1. The preheated anion brine and cation brine were mixed at 1:1 (v/v) ratio to achieve the targeted concentration. Briefly. In the blank test, no scale inhibitor (SI) was added, but a known amount of various SI was added to other test bottles to understand the performance of various SIs. In the scale inhibition tests, inhibition performance or inhibition efficiency at 90° C., especially for barite inhibition at one hour after mixing of anion and cation brine with and without presence of SI was determined using the following equation:
[formula] • At where: • Ca is the concentration (mg/L) of Ba^2+ in solution after the one-hour test with scale inhibitor. • Cb is the concentration (mg/L) of Ba^2+ in solution in the blank after the one-hour test (without scale inhibitor). • Co is the concentration (mg/L) of the resulting Ba^2+ in synthetic water.
The SI dosages in Brine A, B, C and […] was 1, 7.5, 5, and 30 ppm, respectively.

Compound | inhibition efficiency, Brine A | inhibition efficiency, Brine B | inhibition efficiency, Brine C | inhibition efficiency, Brine D
O=P(O)(O)CN(CCN(CP(=O)(O)O)CP(=O)(O)O)CCN(CP(=O)(O)O)CP(=O)(O)O [DTPMP, diethylenetriamine penta(methylene phosphonic acid), reference compound] | 94% | 77% | 100% | 24%
O=P(O)(O)CN(CC(O)COCC(O)C(OCC(O)CN(CP(=O)(O)O)CP(=O)(O)O)C(O)C(COCC(O)CN(CP(=O)(O)O)CP(=O)(O)O)OCC(O)CN(CP(=O)(O)O)CP(=O)(O)O)CP(=O)(O)O (stereo not shown) [Example 1, 1,3,5,6-Tetrakis{3-[bis(phosphonomethyl)amino]-2-hydroxypropoxy}-2,4-hexandiol] | 57% | 88% | 67% | 42%
O=P(O)(O)CN(CCNCC(O)COCC(O)C(OCC(O)CNCCN(CP(=O)(O)O)CP(=O)(O)O)C(O)C(COCC(O)CNCCN(CP(=O)(O)O)CP(=O)(O)O)OCC(O)CNCCN(CP(=O)(O)O)CP(=O)(O)O)CP(=O)(O)O (stereo not shown) [Example 2, 12,14-bis(3-((2-(bis(phosphonomethyl)amino)ethyl)amino)-2-hydroxypropoxy)-2,23-(bis(phosphonomethyl)amino)-9,16-dioxa-2,5,20,23-tetraazatetracosane-7,11,13,18-tetraol] | 100% | 100% | 84% | 83%
O=P(O)(O)CN(CCO)CC(O)COCC(O)C(OCC(O)CN(CCO)CP(=O)(O)O)C(O)C(COCC(O)CN(CCO)CP(=O)(O)O)OCC(O)CN(CCO)CP(=O)(O)O (stereo not shown) [Example 3, 10,12-bis(2-hydroxy-3-((2-hydroxyethyl)(phosphonomethyl)amino)propoxy)-3,18-bis(phosphonomethyl)-7,14-dioxa-3,18-diazaicosane-1,5,9,11,16,20-hexaol] | 48% | 36% | 71% | 5%
CN(CC(O)COCC(O)C(OCC(O)CN(C)CP(=O)(O)O)C(O)C(COCC(O)CN(C)CP(=O)(O)O)OCC(O)CN(C)CP(=O)(O)O)CP(=O)(O)O (stereo not shown) [Example 4] | 23% | 7% | 5% | 2%
O=P(O)(O)CN(CC(O)COCC(CO)OCC(O)CN(CP(=O)(O)O)CP(=O)(O)O)CP(=O)(O)O (stereo not shown) [Example 5] | 42% | 86% | 86% | 42%
O=P(O)(O)CN(CC(O)COCCCCOCC(O)CN(CP(=O)(O)O)CP(=O)(O)O)CP(=O)(O)O (stereo not shown) [Example 6, 3,3-(butane-1,4-diylbis(oxy))bis(1-(bis(phosphonomethyl))propan-2-ol)] | 47% | 63% | 98% | 6%
